Measured values taken from the supplement of paper PMC10307832.

What follows are cell lines tested with CC(C)(C)c1nc(-c2cccc(NS(=O)(=O)c3c(F)cccc3F)c2F)c(-c2ccnc(N)n2)s1 [Dabrafenib] + CC(=O)c1c(C)c2cnc(Nc3ccc(N4CCNCC4)cn3)nc2n(C2CCCC2)c1=O [Palbociclib] (partner 0.5 µM) (assay: relative viability (nuclei count vs DMSO), 5 days (fraction); higher = more cells survive). Settings: first compound 0.003 µM.
Method in brief: (§1)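 One day after seeding in 1536-well plates, lung cancer cell lines were dosed by pin tool. Dosing was either single-drug or a fixed anchor-drug dose plus five library-drug doses (not always all listed) in √10 steps. After 5 days, nuclei were stained in one fix-and-stain step and counted on 4× images, and relative viability is the nuclei count of treated wells over that of vehicle wells, given as the median of duplicate plates.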

Cell Line | relative viability
CAL-12T | 0.461
NCI-H1944 | 0.325
NCI-H2085 | 0.455
NCI-H2228 | 0.502
NCI-H2170 | 0.429
UMC-11 | 0.33
LCLC-103H | 0.467
HCC-827 | 0.465
COR-L 105 | 0.414
NCI-H2126 | 0.294
NCI-H647 | 0.328
HCC-78 | 0.366
HCC-44 | 1.01
NCI-H1651 | 0.499
NCI-H1755 | 0.429
HOP-62 | 0.466
NCI-H1650 | 0.332
ChaGo-K-1 | 0.874
A-427 | 0.485
NCI-H1648 | 0.317
HCC-15 | 0.714
LU99A | 0.477
COR-L23 | 0.25

Same assay, conditions: first compound 0.009487 µM

Cell Line | relative viability
ABC-1 | 1.01
CAL-12T | 0.486
NCI-H1944 | 0.342
NCI-H2085 | 0.463
NCI-H2228 | 0.801
NCI-H441 | 0.268
NCI-H522 | 1.02
EMC-BAC-2 | 0.497
NCI-H2170 | 0.377
UMC-11 | 0.31
NCI-H650 | 0.375
LCLC-103H | 0.495
HCC-827 | 0.3
COR-L 105 | 0.396
NCI-H2126 | 0.333
NCI-H647 | 0.377
LOU-NH91 | 0.558

Cell Line | relative viability
HCC-78 | 0.481
HCC-44 | 0.956
NCI-H1651 | 0.494
NCI-H1755 | 0.425
HOP-62 | 0.423
PC-14 | 0.643
NCI-H1650 | 0.382
ChaGo-K-1 | 0.925
A-427 | 0.537
NCI-H1355 | 0.458
NCI-H1648 | 0.215
NCI-H1792 | 0.718
HCC-15 | 0.779
LU99A | 0.387
EKVX | 0.41
COR-L23 | 0.328

Same assay, conditions: first compound 0.03 µM

Cell Line | relative viability
ABC-1 | 0.704
CAL-12T | 0.599
NCI-H1944 | 0.326
NCI-H2085 | 0.501
NCI-H2228 | 0.753
NCI-H441 | 0.239
NCI-H522 | 0.932
EMC-BAC-2 | 0.448
NCI-H2170 | 0.383
UMC-11 | 0.288
NCI-H650 | 0.308
LCLC-103H | 0.432
HCC-827 | 0.374
COR-L 105 | 0.398
NCI-H2126 | 0.373
NCI-H647 | 0.305

Cell Line | relative viability
LOU-NH91 | 0.589
HCC-78 | 0.414
HCC-44 | 0.943
NCI-H1651 | 0.51
NCI-H1755 | 0.435
HOP-62 | 0.433
PC-14 | 0.618
NCI-H1650 | 0.235
ChaGo-K-1 | 0.838
A-427 | 0.509
NCI-H1355 | 0.373
NCI-H1792 | 0.66
HCC-15 | 0.769
LU99A | 0.388
EKVX | 0.387
COR-L23 | 0.245

Same assay, conditions: first compound 0.09487 µM

Cell Line | relative viability
ABC-1 | 0.607
CAL-12T | 0.388
NCI-H1944 | 0.319
NCI-H2085 | 0.471
NCI-H2228 | 0.668
NCI-H441 | 0.2
NCI-H522 | 0.952
EMC-BAC-2 | 0.427
NCI-H2170 | 0.377
UMC-11 | 0.327
NCI-H650 | 0.305
LCLC-103H | 0.455
COR-L 105 | 0.417
NCI-H2126 | 0.359
NCI-H647 | 0.395
LOU-NH91 | 0.533

Cell Line | relative viability
HCC-78 | 0.426
HCC-44 | 0.842
NCI-H1651 | 0.524
NCI-H1755 | 0.411
HOP-62 | 0.471
PC-14 | 0.522
NCI-H1650 | 0.301
ChaGo-K-1 | 0.89
A-427 | 0.459
NCI-H1355 | 0.409
NCI-H1648 | 0.251
NCI-H1792 | 0.63
HCC-15 | 0.729
LU99A | 0.39
EKVX | 0.383
COR-L23 | 0.275

Same assay, conditions: first compound 0.3 µM

Cell Line | relative viability
ABC-1 | 1.03
CAL-12T | 0.722
NCI-H1944 | 0.318
NCI-H2085 | 0.456
NCI-H2228 | 0.7
NCI-H441 | 0.248
NCI-H522 | 1.08
EMC-BAC-2 | 0.418
NCI-H2170 | 0.397
UMC-11 | 0.349
NCI-H650 | 0.238
LCLC-103H | 0.514
HCC-827 | 0.525
COR-L 105 | 0.367
NCI-H2126 | 0.382
NCI-H647 | 0.349
LOU-NH91 | 0.543

Cell Line | relative viability
HCC-78 | 0.498
HCC-44 | 0.983
NCI-H1651 | 0.505
NCI-H1755 | 0.415
HOP-62 | 0.498
PC-14 | 0.65
NCI-H1650 | 0.358
ChaGo-K-1 | 0.996
A-427 | 0.533
NCI-H1355 | 0.47
NCI-H1648 | 0.329
NCI-H1792 | 0.66
HCC-15 | 0.78
LU99A | 0.393
EKVX | 0.445
COR-L23 | 0.207

These cell lines were tested with CC(C)(C)c1nc(-c2cccc(NS(=O)(=O)c3c(F)cccc3F)c2F)c(-c2ccnc(N)n2)s1 [Dabrafenib] + COc1cccc2cc(-c3nc([C@H]4CC[C@H](C(=O)O)CC4)n4ncnc(N)c34)[nH]c12 [OSI-027] (partner 0.5 µM) in the same assay as above. Settings: first compound 0.003 µM.
Method in brief: as §1

Cell Line | relative viability
ABC-1 | 0.442
CAL-12T | 0.523
NCI-H1944 | 0.356
NCI-H2085 | 0.355
EMC-BAC-2 | 0.359
NCI-H2170 | 0.749
UMC-11 | 0.439
LCLC-103H | 0.4
HCC-827 | 0.586
COR-L 105 | 0.6
NCI-H2126 | 0.492
NCI-H647 | 0.325
LOU-NH91 | 0.488
HCC-44 | 0.45
NCI-H1651 | 0.724
NCI-H1755 | 0.668
HOP-62 | 0.354
PC-14 | 0.438
NCI-H1650 | 0.318
ChaGo-K-1 | 0.209
NCI-H1648 | 0.225
HCC-15 | 0.547
LU99A | 0.282
EKVX | 0.649
COR-L23 | 0.768
NCI-H1563 | 0.732

Same assay, conditions: first compound 0.009487 µM

Cell Line | relative viability
ABC-1 | 0.42
CAL-12T | 0.68
NCI-H1944 | 0.433
NCI-H2085 | 1.06
NCI-H2228 | 0.668
NCI-H441 | 0.465
NCI-H522 | 0.761
EMC-BAC-2 | 0.376
NCI-H2170 | 0.698
UMC-11 | 0.504
NCI-H650 | 0.578
LCLC-103H | 0.502
NCI-H596 | 0.976
HCC-827 | 0.955
COR-L 105 | 0.786
NCI-H2126 | 0.787
NCI-H647 | 0.704
LOU-NH91 | 0.801

Cell Line | relative viability
HCC-78 | 0.36
HCC-44 | 0.614
NCI-H1651 | 0.666
NCI-H1755 | 0.672
HOP-62 | 0.841
PC-14 | 1.13
NCI-H1650 | 0.899
ChaGo-K-1 | 0.53
A-427 | 0.351
NCI-H1355 | 0.477
NCI-H1648 | 0.249
NCI-H1792 | 0.749
HCC-15 | 0.695
LU99A | 0.307
EKVX | 0.79
COR-L23 | 0.803
NCI-H1563 | 0.742
NCI-H1623 | 0.46

Same assay, conditions: first compound 0.03 µM

Cell Line | relative viability
ABC-1 | 0.496
CAL-12T | 0.902
NCI-H1944 | 0.39
NCI-H2085 | 0.675
NCI-H2228 | 0.554
NCI-H441 | 0.565
NCI-H522 | 0.642
EMC-BAC-2 | 0.301
NCI-H2170 | 0.589
UMC-11 | 0.481
NCI-H650 | 0.427
LCLC-103H | 0.46
NCI-H596 | 0.63
HCC-827 | 0.744
COR-L 105 | 0.58
NCI-H2126 | 0.717
NCI-H647 | 0.561
LOU-NH91 | 0.666

Cell Line | relative viability
HCC-78 | 0.334
HCC-44 | 0.511
NCI-H1651 | 0.748
NCI-H1755 | 0.591
HOP-62 | 0.778
PC-14 | 0.775
NCI-H1650 | 0.374
ChaGo-K-1 | 0.502
A-427 | 0.518
NCI-H1355 | 0.34
NCI-H1648 | 0.298
NCI-H1792 | 0.618
HCC-15 | 0.67
LU99A | 0.29
EKVX | 0.693
COR-L23 | 0.732
NCI-H1563 | 0.675
NCI-H1623 | 0.441

Same assay, conditions: first compound 0.09487 µM

Cell Line | relative viability
ABC-1 | 0.537
CAL-12T | 0.566
NCI-H1944 | 0.505
NCI-H2085 | 0.616
NCI-H2228 | 0.52
NCI-H441 | 0.438
NCI-H522 | 0.714
EMC-BAC-2 | 0.295
NCI-H2170 | 0.745
UMC-11 | 0.475
NCI-H650 | 0.331
LCLC-103H | 0.51
NCI-H596 | 0.658
COR-L 105 | 0.722
NCI-H2126 | 0.609
NCI-H647 | 0.582
LOU-NH91 | 0.7
HCC-78 | 0.354

Cell Line | relative viability
HCC-44 | 0.478
NCI-H1651 | 0.714
NCI-H1755 | 0.661
HOP-62 | 0.631
PC-14 | 0.804
NCI-H1650 | 0.803
ChaGo-K-1 | 0.504
A-427 | 0.379
NCI-H1355 | 0.416
NCI-H1648 | 0.244
NCI-H1792 | 0.737
HCC-15 | 0.53
LU99A | 0.339
EKVX | 0.652
COR-L23 | 0.6
NCI-H1563 | 0.791
NCI-H1623 | 0.425

Same assay, conditions: first compound 0.3 µM

Cell Line | relative viability
ABC-1 | 0.507
CAL-12T | 0.645
NCI-H1944 | 0.439
NCI-H2085 | 0.859
NCI-H2228 | 0.607
NCI-H441 | 0.352
NCI-H522 | 0.757
EMC-BAC-2 | 0.329
NCI-H2170 | 0.684
UMC-11 | 0.49
NCI-H650 | 0.301
LCLC-103H | 0.461
NCI-H596 | 0.886
HCC-827 | 0.657
COR-L 105 | 0.906
NCI-H2126 | 0.954
NCI-H647 | 0.476
LOU-NH91 | 0.75
HCC-78 | 0.38
HCC-44 | 0.591
NCI-H1651 | 0.736
NCI-H1755 | 0.701
HOP-62 | 0.557
PC-14 | 0.794
NCI-H1650 | 0.948
ChaGo-K-1 | 0.651
A-427 | 0.474
NCI-H1355 | 0.44
NCI-H1648 | 0.209
